In patent US10940139B2, “Compounds that interact with the Ras superfamily for the treatment of cancers, inflammatory diseases, rasopathies, and fibrotic disease” (Shy Therapeutics LLC, priority 2017, dated 2021):

Tests used:
KRas G12D mutant protein = KRas G12D mutant protein (Homo sapiens (Human), UniProt P01116, G12D); test: Ras GTP binding domain inhibition assay (labeled GTP); details: at 20 μM; read-out: KRas G12D % Inh.
[1] = target: KRas G12D/Q61H double mutant (Homo sapiens (Human), UniProt P01116, G12D/Q61H); test: as above; details: at 20 μM; read-out: KRas G12D Q61H % Inh.
Procedure, shortened: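 Fluorescence read-out of Cy3-/Cy5-GTP remaining bound to nickel-immobilized His-KRas after washes. Protein was coated overnight at 4° C, then exposed to compound for 3 h at room temperature before a 45 min labeled-GTP incubation.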

Rho-A = Rho-A (Homo sapiens (Human), UniProt P61586); test: Rho inhibition assay (labeled GTP); format: binding; details: read-out: Rho-A % Inh.
Rac-1 = Rac-1 (Homo sapiens (Human), UniProt P63000); test: Rac inhibition assay (labeled GTP); format: binding; details: read-out: Rac-1 % Inh.

KRas G12D/Q61H double mutant, sequence (P01116-2 other isoform, or with tags, fused parts or gaps G12D/Q61H): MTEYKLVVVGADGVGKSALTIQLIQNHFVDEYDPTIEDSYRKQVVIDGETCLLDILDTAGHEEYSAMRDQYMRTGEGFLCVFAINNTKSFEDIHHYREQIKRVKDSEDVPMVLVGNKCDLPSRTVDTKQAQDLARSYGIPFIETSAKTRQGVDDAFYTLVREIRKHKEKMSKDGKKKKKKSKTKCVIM
KRas G12D mutant protein, sequence (P01116-2 other isoform, or with tags, fused parts or gaps G12D): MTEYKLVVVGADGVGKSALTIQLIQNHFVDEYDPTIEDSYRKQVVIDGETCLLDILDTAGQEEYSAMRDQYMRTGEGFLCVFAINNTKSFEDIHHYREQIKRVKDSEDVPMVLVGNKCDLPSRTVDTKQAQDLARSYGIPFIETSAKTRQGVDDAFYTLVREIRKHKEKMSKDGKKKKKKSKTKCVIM
Rho-A, sequence (P61586 whole entry): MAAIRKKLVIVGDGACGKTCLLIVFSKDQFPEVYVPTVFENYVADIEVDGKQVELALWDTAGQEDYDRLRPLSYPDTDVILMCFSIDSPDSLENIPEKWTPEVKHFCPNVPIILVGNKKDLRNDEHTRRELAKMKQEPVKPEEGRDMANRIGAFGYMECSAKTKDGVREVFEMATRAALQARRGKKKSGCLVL

Row | Compound | inhibition at 20 µM (KRas G12D mutant protein) [%] | inhibition at 20 µM [1] [%] | inhibition at 20 µM (Rho-A) [%] | inhibition at 20 µM (Rac-1) [%]
1 | COc1ccc(COC[C@H]2OC(c3csc4c(=O)[nH]c(-c5ccccn5)nc34)[C@H](O)[C@@H]2O)cc1 (stereo partly shown) | 25 to 50 | 25 to 50 | 76 to 100 | 51 to 75
2 | Oc1nc(-c2ccccn2)nc2scc(Br)c12 [drawing 3623] | 51 to 75 | 51 to 75 | 76 to 100 | 76 to 100
3 | Oc1nc(-c2ccccn2)nc2sccc12 [drawing 3624] | 25 to 50 | 51 to 75 | 76 to 100 | 76 to 100
4 | Oc1nc(-c2ccccn2)nc2c(-c3ccccc3Cl)csc12 [drawing 3626] | 25 to 50 | 51 to 75 | 76 to 100 | 76 to 100
5 | COc1ccnc(-c2nc(O)c3ccsc3n2)c1 [drawing 3627] | 51 to 75 | 51 to 75 | 51 to 75 | 76 to 100
6 | CC1CN(c2ccccc2)CCN1C(=O)c1csc2c(O)nc(-c3ccccn3)nc12 (stereo not shown) [drawing 3650] | 76 to 100 | 51 to 75 | 76 to 100 | 76 to 100
7 | COc1cccc(CN2CCN(C(=O)c3csc4c(O)nc(-c5ccccn5)nc34)CC2)c1 [drawing 3652] | 76 to 100 | 25 to 50 | 76 to 100 | 76 to 100
8 | O=C(c1csc2c(O)nc(-c3ccccn3)nc12)N1CCOC(c2ccccc2Cl)C1 (stereo not shown) [drawing 3658] | 25 to 50 | 51 to 75 | 76 to 100 | 51 to 75
9 | COc1cccc(C2CN(C(=O)c3csc4c(O)nc(-c5ccccn5)nc34)CCN2)c1 (stereo not shown) [drawing 3662] | 51 to 75 | 25 to 50 | 76 to 100 | 76 to 100
10 | N#Cc1ccc(COCC(=O)Nc2nc(-c3ccccn3)nc3sccc23)cc1 [drawing 3688] | 76 to 100 | 25 to 50 | 76 to 100 | 76 to 100
11 | COc1ccnc(-c2nc(O)c3c(Cl)csc3n2)c1 [drawing 3689] | 51 to 75 | 51 to 75 | 76 to 100 | 76 to 100
12 | Cc1cnc(-c2ccccn2)nc1NC(=O)C1CCCc2cc(C#N)ccc21 (stereo not shown) [drawing 3699] | 25 to 50 | 51 to 75 | 76 to 100 | 76 to 100
13 | O=C(COCc1ccncc1)Nc1nc(-c2ccccn2)nc2sccc12 [drawing 3700] | 51 to 75 | 51 to 75 | 76 to 100 | 76 to 100
14 | O=C(COCc1cccnc1)Nc1nc(-c2ccccn2)nc2sccc12 [drawing 3701] | 51 to 75 | 51 to 75 | 76 to 100 | 76 to 100
15 | Nc1nc(-c2ccccn2)nc2ccsc12 [drawing 3706] | 1 to 25 | 25 to 50 | 76 to 100 | 76 to 100
16 | Cc1cc2nc(-c3ccccn3)nc(N)c2s1 [drawing 3708] | 51 to 75 | 51 to 75 | 76 to 100 | 76 to 100
17 | O=C(c1csc2c(O)nc(-c3ccccn3)nc12)N1CC2CC1CN2c1ccccc1 (stereo not shown) [drawing 3710] | 51 to 75 | 76 to 100 | 76 to 100 | 76 to 100
18 | O=C(c1csc2c(O)nc(-c3ccccn3)nc12)N1CCC(c2ccncc2)C1 (stereo not shown) [drawing 3711] | 51 to 75 | 51 to 75 | 76 to 100 | 51 to 75
19 | O=C(c1csc2c(O)nc(-c3ccccn3)nc12)N1CCC(c2cccc(O)c2)C1 (stereo not shown) [drawing 3712] | 76 to 100 | 76 to 100 | 76 to 100 | 76 to 100
20 | O=C(c1cc2nc(-c3ccccn3)nc(O)c2s1)N1CCN(c2ccccc2)CC1 [drawing 3713] | 51 to 75 | 51 to 75 | 76 to 100 | 76 to 100
21 | Oc1nc(-c2ccccn2)nc2c(-c3cc(Cl)cc(Cl)c3)csc12 [drawing 3720] | 25 to 50 | 25 to 50 | 51 to 75 | 25 to 50
22 | Oc1nc(-c2ccccn2)nc2c(-c3cccc4c3OCO4)csc12 [drawing 3721] | 25 to 50 | 51 to 75 | 51 to 75 | 51 to 75
23 | O=C(O)c1cc2nc(-c3ccccn3)nc(O)c2s1 [drawing 3722] | 51 to 75 | 51 to 75 | 76 to 100 | 76 to 100
24 | Oc1nc(-c2ccccn2)nc2sc3c(c12)CCNC3 [drawing 3723] | 76 to 100 | 51 to 75 | 76 to 100 | 76 to 100

Row | Compound | inhibition at 20 µM (KRas G12D mutant protein) [%] | inhibition at 20 µM [1] [%] | inhibition at 20 µM (Rho-A) [%] | inhibition at 20 µM (Rac-1) [%]
25 | Oc1nc(-c2ccccn2)nc2sc3c(c12)CCCNC3 [drawing 3724] | 51 to 75 | 25 to 50 | 51 to 75 | 76 to 100
26 | Cc1cnc(-c2ccccn2)nc1NC(=O)Cc1ccc2cnccc2c1 [drawing 3728] | 51 to 75 | 51 to 75 | 76 to 100 | 76 to 100
27 | O=C(COCc1ccnc(O)c1)Nc1nc(-c2ccccn2)nc2sccc12 [drawing 3729] | 25 to 50 | 51 to 75 | 51 to 75 | 51 to 75
28 | Nc1nc(-c2ccccn2)nc2c(-c3ccccc3)csc12 [drawing 3731] | 25 to 50 | 25 to 50 | 51 to 75 | 51 to 75
29 | Oc1nc(-c2ccccn2)nc2c(-c3cc(F)ccc3OC(F)F)csc12 [drawing 3732] | 51 to 75 | 25 to 50 | 25 to 50 | 51 to 75
30 | Cn1nnc2ccc(-c3csc4c(O)nc(-c5ccccn5)nc34)cc21 [drawing 3733] | 51 to 75 | 51 to 75 | 51 to 75 | 76 to 100
31 | O=S1(=O)CCN(Cc2cccc(-c3csc4c(O)nc(-c5ccccn5)nc34)c2)CC1 [drawing 3736] | 51 to 75 | 51 to 75 | 76 to 100 | 76 to 100
32 | Oc1nc(-c2ccncn2)nc2c(-c3cccc(C(F)(F)F)c3)csc12 [drawing 3925] | 1 to 25 | – | 1 to 25 | 1 to 25
33 | Oc1nc(-c2ncccn2)nc2c(-c3cccc(C(F)(F)F)c3)csc12 [drawing 3926] | 25 to 50 | – | 51 to 75 | 51 to 75
34 | CC(C)Oc1ccc(-c2csc3c(O)nc(-c4nccn4C)nc23)cc1F [drawing 3927] | 25 to 50 | – | 25 to 50 | 51 to 75
35 | Cc1sc2c(O)nc(-c3nccn3C)nc2c1-c1ccc(OC(C)C)c(F)c1 [drawing 3928] | 51 to 75 | – | 25 to 50 | 51 to 75
36 | CC(C)Oc1ccc(-c2c(-c3ccccc3)sc3c(O)nc(-c4nccn4C)nc23)cc1F [drawing 3929] | 25 to 50 | – | 25 to 50 | 51 to 75
37 | CC(C)COc1ccc(-c2csc3c(O)nc(-c4nccn4C)nc23)cn1 [drawing 3930] | 76 to 100 | – | 51 to 75 | 51 to 75
38 | COc1ccc(-c2csc3c(O)nc(-c4nccn4C)nc23)cn1 [drawing 3931] | 51 to 75 | – | 51 to 75 | 51 to 75
39 | Cn1ccnc1-c1nc(O)c2scc(-c3ccccc3)c2n1 [drawing 3932] | 51 to 75 | – | 25 to 50 | 51 to 75
40 | Cn1ccnc1-c1nc(O)c2scc(-c3ccccc3Cl)c2n1 [drawing 3933] | 25 to 50 | – | 51 to 75 | 51 to 75
41 | Cn1ccnc1-c1nc(O)c2scc(-c3ccc(F)cc3F)c2n1 [drawing 3934] | 25 to 50 | – | 25 to 50 | 51 to 75
42 | Cn1ccnc1-c1nc(O)c2scc(-c3cccc(Cl)c3)c2n1 [drawing 3935] | 25 to 50 | – | 51 to 75 | 51 to 75
43 | COC(C)(C)c1ccc(-c2csc3c(O)nc(-c4nccn4C)nc23)cc1 [drawing 3936] | 25 to 50 | – | 51 to 75 | 25 to 50
44 | Cn1ccnc1-c1nc(O)c2scc(-c3ccc(C(C)(C)C)cc3)c2n1 [drawing 3937] | 1 to 25 | – | 25 to 50 | 25 to 50
45 | COCCNc1nc(-c2ccccn2)nc2sc(-c3ccccc3)c(-c3ccccn3)c12 [drawing 3938] | 1 to 25 | – | 25 to 50 | 1 to 25
46 | Cc1sc2c(O)nc(-c3nccn3C)nc2c1-c1ccc(F)cc1F [drawing 3939] | 1 to 25 | – | 1 to 25 | 1 to 25
47 | COCCNc1nc(-c2nccn2C)nc2sc(-c3ccccc3)c(-c3ccccn3)c12 [drawing 3940] | 25 to 50 | – | 51 to 75 | 25 to 50
